A short description of data set [1]: Stability of EPA powder at room temperature. The data set is classed as physicochemical. As to conditions: powder form, no antioxidants added.
A short description of data set [2]: Physical characterisation of isolated EPA: solubility. Type of data set: physicochemical. As to conditions: solvent chloroform; isolated EPA free fatty acid powder. The method, then:
Take 1 litre of fish oil. Maintain temperature to 40-45° C. To it add 1-2% methanolic or ethanolic or propanolic or butanolic sodium or potassium hydroxide 1 litre and stir for ½ an hour. keep aside, it separates into 2 layers, discard an upper layer which contains lower fatty acids. It further separates in to two layers, discard the upper layer. Then in lower layer add 750 ml of acetone or ethyl/ methyl ketone and stir for ½ an hour and keep aside for 20 mins. It precipitates and form two phase (solid and liquid) filter it and discard the solid layer. In the lower liquid layer, after ½ an hour, settle solid compound. On filtration, the solid compound separates. Wash the solid compound 2-3 times with 400 ml of acetone and Evaporate and recover the solvent with temperature not exceeding 40 degree C. This leads to drying of the precipitated EPA at room temperature to form the crystalline mass. The same is passed through the sieve to obtain a dry, directly compressible, free flowing powder of free fatty acid EPA thereof.
Cool fish oil to 12 degree C. to solidify all fatty acids in waxy form which separates from the fish oil. […] It is washed 2-3 times with equal quantity of acetone and Evaporate and recover the solvent with temperature not exceeding 40 degree C. […]

For the compound `CC/C=C\C/C=C\C/C=C\C/C=C\C/C=C\CCCC(=O)O` [EPA, Eicosapentaenoic acid], the Stability entry in data set [1] was “stable at room temperature”. For the same compound, the Solubility result in data set [2] is listed as “freely soluble in chloroform”.

The values above are taken from patent US20140051877A1, “EICOSAPENTAENOIC ACID (EPA) AS POLYUNSATURATED FREE FATTY ACID IN ITS DIRECTLY COMPRESSIBLE POWDER FORM AND PROCESS OF ISOLATION THEREOF” (priority 2011, published 2014).
